pIC50: −log10 of the molar value. Where only a bound is given, the exact number is not on record here.

The target in one experiment is T1, Human ASK1 (Homo sapiens, UniProt Q99683).
T1 construct: expressed in transfected cells; host or cells: HEK293T-AP1
T1 sequence (Q99683 1-1374): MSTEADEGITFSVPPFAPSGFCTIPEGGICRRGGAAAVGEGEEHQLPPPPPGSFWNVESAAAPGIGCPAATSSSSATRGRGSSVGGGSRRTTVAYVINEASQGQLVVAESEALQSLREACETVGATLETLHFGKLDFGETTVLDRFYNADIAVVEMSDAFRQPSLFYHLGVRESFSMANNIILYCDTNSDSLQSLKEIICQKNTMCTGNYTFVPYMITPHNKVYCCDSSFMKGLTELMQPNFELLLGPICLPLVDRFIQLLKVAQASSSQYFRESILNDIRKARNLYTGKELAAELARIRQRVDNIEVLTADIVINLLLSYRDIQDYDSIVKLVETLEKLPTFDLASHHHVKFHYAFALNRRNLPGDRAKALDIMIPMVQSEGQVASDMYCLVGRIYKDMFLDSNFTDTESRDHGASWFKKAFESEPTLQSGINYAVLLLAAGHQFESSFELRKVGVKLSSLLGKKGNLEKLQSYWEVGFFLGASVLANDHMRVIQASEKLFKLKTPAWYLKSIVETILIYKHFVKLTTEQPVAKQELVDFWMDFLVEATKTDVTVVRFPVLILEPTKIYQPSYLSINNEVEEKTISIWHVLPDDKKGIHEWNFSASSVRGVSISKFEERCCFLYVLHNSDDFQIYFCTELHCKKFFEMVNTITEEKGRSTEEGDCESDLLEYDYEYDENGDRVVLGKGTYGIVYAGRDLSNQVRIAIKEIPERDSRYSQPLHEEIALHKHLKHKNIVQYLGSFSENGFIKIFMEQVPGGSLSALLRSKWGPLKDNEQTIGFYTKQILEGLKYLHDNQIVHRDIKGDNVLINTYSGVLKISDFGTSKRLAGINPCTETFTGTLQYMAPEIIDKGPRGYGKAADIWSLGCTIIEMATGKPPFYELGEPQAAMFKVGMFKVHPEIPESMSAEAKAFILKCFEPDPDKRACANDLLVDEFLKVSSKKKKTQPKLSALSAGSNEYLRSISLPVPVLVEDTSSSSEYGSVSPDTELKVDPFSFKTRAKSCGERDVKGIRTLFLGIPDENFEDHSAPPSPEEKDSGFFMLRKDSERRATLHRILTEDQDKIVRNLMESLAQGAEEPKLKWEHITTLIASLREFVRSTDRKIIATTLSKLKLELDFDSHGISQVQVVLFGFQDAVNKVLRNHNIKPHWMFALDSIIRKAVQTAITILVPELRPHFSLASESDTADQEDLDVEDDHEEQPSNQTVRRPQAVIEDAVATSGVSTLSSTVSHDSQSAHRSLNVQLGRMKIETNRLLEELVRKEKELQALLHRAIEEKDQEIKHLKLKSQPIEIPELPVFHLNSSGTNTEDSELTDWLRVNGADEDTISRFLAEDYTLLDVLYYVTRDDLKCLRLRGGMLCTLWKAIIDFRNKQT
Nature of the experiment: ASK1 Cell Based Assay (phospho p38 read out in hASK1 transfected HEK293T-AP1 cells). The conditions noted are these: HEK293T-AP1 cells, 1 mM hydrogen peroxide, phospho p38; read-out: Cell Based Assay IC50. Here is the method: HEK293T-AP1 cells were seeded at a density of 20,000 cells per well in a poly-d-lysine coated 96 well microplate. Next day, cells were transfected with hASK1-pcDNA3.1 vector using lipofectamine 3000. After 24 hours of transfection, cells were treated with compounds for 24 hours in assay medium. DMSO was used as a vehicle control with a final DMSO concentration of 0.2%. On 4th day, medium was discarded and cells were activated with 1 mM hydrogen peroxide for 1 hour in the presence of compounds. Cells were lysed for 1 hour with 1× lysis buffer on a shaker at 100 rpm. Sixteen microliters of lysate was collected into a 384 well small volume plate. Phospho p38 levels in the lysate was detected by using CisbioPhospho-p38 MAPK (Thr180/Tyr182) #64P38PEG.Four microliters of phospho p38 antibodies labelled with europium cryptate and d2 acceptor, were added to the lysate and incubated overnight. TR-FRET was measured at an excitation of 335 nm and emission was measured at 615 nm and 665 nm in BMG FLUOstar multimode reader.
Compounds were assessed for ASK1 inhibition based on phospho p38 read out. […] Background control values were susbtracted from vehicle control as well as from compound treated wells.

The next experiment concerns the target T2, recombinant ASK1 (Homo sapiens, UniProt Q99683).
T2 construct: purchased Carna Biosciences
Nature of the experiment: ASK1 Biochemical Assay (HTRF KinEASE-STK S3). Particulars: ATP 100 μM; read-out: Biochemical Assay IC50. The procedure:
ASK1 biochemical assay was standardized using recombinant ASK1 (Carna Biosciences), substrate and detection reagents from Cisbio HRTF KinEASE-STK S3 kit. Enzyme concentration, ATP, biotinylated STK substrate and STK antibodies were titrated for enzyme assay. Assay was carried out in ASK1 kinase buffer, 10 mM MOPS pH-7, 10 mM Mg-acetate, 1 mM DTT, 0.025% NP40, 1.5% glycerol and 0.05% BSA. DMSO was used as vehicle control with a final concentration of 1%. A 5 ng of ASK1 enzyme was incubated with compound for 1 hour at 23° C. on a shaker at 100rpm. ATP and biotin substrate was added at a final concentration of 100 μM and 1 μM and incubated for 3 hours at 23° C. on a shaker at 100rpm. […] Delta F ratios were calculated from data obtained at excitation (337 nm) and emission wavelengths (665 nm and 620-10 nm). Substrate blank values was considered as negative control. Values from negative control was substrated from vehicle control and compound treated wells. Enzyme inhibition by compounds were calculated from vehicle controls, which represent uninterrupted enzyme's activity.
A general note: In TR-FRET formats the signal depends on donor and acceptor labels being close together.

With `CC(C)NC1CN(c2ccc(N3CCN(c4cccc(-c5nncn5C(C)C)n4)C3=O)cc2)C1` [Example 1088, 1-(6-(4-isopropyl-4H-1,2,4-triazol-3-yl)pyridin-2-yl)-3-(4-(3-(isopropylamino)azetidin-1-yl)phenyl)imidazolidin-2-one], the pIC50 was < 6.00 at Human ASK1 and > 7.00 on recombinant ASK1.

Consider `CC(C)n1cnnc1-c1cccc(N2CCN(c3ccc(-n4ccnc4)nc3)C2=O)n1` [Example 1104, 1-(6-(1H-imidazol-1-yl)pyridin-3-yl)-3-(6-(4-isopropyl-4H-1,2,4-triazol-3-yl)pyridin-2-yl)imidazolidin-2-one], for which the values for the pIC50 on Human ASK1 and at recombinant ASK1 were < 7.00 and > 7.00, respectively. The corresponding values for `CC(C)n1cnnc1-c1cccc(N2CCN(c3cccc(-c4ccncc4)c3)C2=O)n1` [Example 1011, 1-(6-(4-isopropyl-4H-1,2,4-triazol-3-yl)pyridin-2-yl)-3-(3-(pyridin-4-yl)phenyl)imidazolidin-2-one] are < 5.00 and > 6.00.

Turning to `CC(C)n1cnnc1-c1cccc(N2CCN(c3ccc(S(N)(=O)=O)cc3)C2=O)n1` [Example 1023, 4-(3-(6-(4-isopropyl-4H-1,2,4-triazol-3-yl)pyridin-2-yl)-2-oxoimidazolidin-1-yl)benzenesulfonamide], on Human ASK1, the pIC50 was < 6.00.

In the case of `CC(C)n1cnnc1-c1cccc(N2CCN(c3cccc(-n4cnc(C5CC5)c4)c3)C2=O)n1` [Example 1005, 1-(3-(4-cyclopropyl-1H-imidazol-1-yl)phenyl)-3-(6-(4-isopropyl-4H-1,2,4-triazol-3-yl)pyridin-2-yl)imidazolidin-2-one], the pIC50 at recombinant ASK1 was > 6.00. With `CC(C)c1cc(N2CCN(c3cccc(-c4nncn4C(C)C)n3)C2=O)ccc1S(C)(=O)=O` [Example 1062, 1-(3-isopropyl-4-(methylsulfonyl)phenyl)-3-(6-(4-isopropyl-4H-1,2,4-triazol-3-yl)pyridin-2-yl)imidazolidin-2-one], on recombinant ASK1, the pIC50 was < 6.00. `CC(C)n1cnnc1-c1cccc(N2CCN(c3cccc(S(C)(=O)=O)c3)C2=O)n1` [Example 1009, 1-(6-(4-isopropyl-4H-1,2,4-triazol-3-yl)pyridin-2-yl)-3-(3-(methylsulfonyl)phenyl)imidazolidin-2-one]: the pIC50 on recombinant ASK1 was 7.02. On to `CC(C)n1cnnc1-c1cccc(N2CCN(c3ccc(N4CCC(C)(C)CC4)cc3)C2=O)n1` [Example 1070, 1-(6-(4-isopropyl-4H-1,2,4-triazol-3-yl)pyridin-2-yl)-3-(4-(4,4-dimethylpiperidin-1-yl)phenyl)imidazolidin-2-one], for which the pIC50 at recombinant ASK1 is > 7.00. For `CC(C)n1cnnc1-c1cccc(N2CCN(c3ccc(N4CC(O)(C(C)C)C4)cc3)C2=O)n1` [Example 1089, 1-(4-(3-hydroxy-3-isopropylazetidin-1-yl)phenyl)-3-(6-(4-isopropyl-4H-1,2,4-triazol-3-yl)pyridin-2-yl)imidazolidin-2-one], the pIC50 on recombinant ASK1 was > 7.00. The same measure, in the same setting: the value for `CC(C)n1cnnc1-c1cccc(N2CCN(c3ccc(N4CCC(S(C)(=O)=O)CC4)nc3)C2=O)n1` [Example 1120, 1-(6-(4-isopropyl-4H-1,2,4-triazol-3-yl)pyridin-2-yl)-3-(6-(4-(methylsulfonyl)piperidin-1-yl)pyridin-3-yl)imidazolidin-2-one] was > 7.00; that for `CC(C)n1cnnc1-c1cccc(-n2ccn(-c3cc(-n4ccnc4)ncn3)c2=O)n1` [Example 1004, 1-(6-(1H-imidazol-1-yl)pyrimidin-4-yl)-3-(6-(4-isopropyl-4H-1,2,4-triazol-3-yl)pyridin-2-yl)-1H-imidazol-2(3H)-one] was < 6.00. For the compound `CNC(=O)C1CCN(C(C)c2ccc(N3CCN(c4cccc(-c5nncn5C(C)C)n4)C3=O)cc2)CC1` (centres unmarked) [Example 1127, 1-(1-(4-(3-(6-(4-isopropyl-4H-1,2,4-triazol-3-yl)pyridin-2-yl)-2-oxoimidazolidin-1-yl)phenyl)ethyl)-N-methylpiperidine-4-carboxamide], the pIC50 at recombinant ASK1 was > 7.00. Regarding `CC(C)n1cnnc1-c1ccc(N2CCN(c3ccc(S(C)(=O)=O)cc3)C2=O)nc1` [Example 1064, 1-(5-(4-isopropyl-4H-1,2,4-triazol-3-yl)pyridin-2-yl)-3-(4-(methylsulfonyl)phenyl)imidazolidin-2-one], the pIC50 on recombinant ASK1 was < 7.00.

In the case of `CC(C)n1cnnc1-c1cccc(N2CCN(c3ccc4nc(NC5CC5)sc4c3)C2=O)n1` [Example 1046, N-cyclopropyl-6-(3-(6-(4-isopropyl-4H-1,2,4-triazol-3-yl)pyridin-2-yl)-2-oxoimidazolidin-1-yl)benzo[d]thiazol-2-aminium 2,2,2-trifluoroacetate], the pIC50 at recombinant ASK1 is < 7.00. For `CC(c1ccc(N2CCOCC2)cc1)N1CCN(c2cccc(-c3nncn3C(C)C)n2)C1=O` (centres unmarked) [Example 1111, 1-(6-(4-isopropyl-4H-1,2,4-triazol-3-yl)pyridin-2-yl)-3-(1-(4-morpholinophenyl)ethyl)imidazolidin-2-one], the pIC50 on recombinant ASK1 was > 7.00. As for `CNC(=O)C1CCN(c2ccc(N3CCN(c4cccc(-c5nncn5C(C)C)n4)C3=O)cn2)C1` (centres unmarked) [Example 1119, 1-(5-(3-(6-(4-isopropyl-4H-1,2,4-triazol-3-yl)pyridin-2-yl)-2-oxoimidazolidin-1-yl)pyridin-2-yl)-N-methylpyrrolidine-3-carboxamide], the pIC50 at recombinant ASK1 was > 7.30. Turning to `CC(C)n1cnnc1-c1cccc(N2CCN(c3cc(-n4ccnc4)ncn3)C2=O)n1` [Example 1001, 1-(6-(1H-imidazol-1-yl)pyrimidin-4-yl)-3-(6-(4-isopropyl-4H-1,2,4-triazol-3-yl)pyridin-2-yl)imidazolidin-2-one], the pIC50 on recombinant ASK1 was 5.89. With `CC(C)n1cnnc1-c1cccc(N2CCN(c3cccc(-c4cnn(C)c4)c3)C2=O)n1` [Example 1012, 1-(6-(4-isopropyl-4H-1,2,4-triazol-3-yl)pyridin-2-yl)-3-(3-(1-methyl-1H-pyrazol-4-yl)phenyl)imidazolidin-2-one], at recombinant ASK1, the negative logarithm of the IC50 (pIC50) was > 6.00. As for `CC(C)n1cnnc1-c1cccc(N2CCN(c3cnc(S(C)(=O)=O)nc3)C2=O)n1` [Example 1102, 1-(6-(4-isopropyl-4H-1,2,4-triazol-3-yl)pyridin-2-yl)-3-(2-(methylsulfonyl)pyrimidin-5-yl)imidazolidin-2-one], the pIC50 at recombinant ASK1 is > 7.00. As for `CC(C)n1cnnc1-c1cccc(N2CCN(c3ccnc(N4CCOCC4)c3)C2=O)n1` [Example 1132, 1-(6-(4-isopropyl-4H-1,2,4-triazol-3-yl)pyridin-2-yl)-3-(2-morpholinopyridin-4-yl)imidazolidin-2-one], the pIC50 at recombinant ASK1 was < 6.00.

In general, pIC50 refers to −log10 of the IC50, conventionally taken in molar units.

The record behind these values is US20220332700A1, “NOVEL APOPTOSIS SIGNAL-REGULATING KINASE 1 INHIBITORS” (MANKIND PHARMA LTD, priority 2019, published 2022).
